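GI50 = concentration required for 50% inhibition of growth. TGI is the concentration that stops growth completely.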
Assays:
Assay in all cases: inhibition of tumour cell growth, NCI panel, 384-well format; in the data active = GI50 below about 0.43 µM; inactive = the rest
M14 melanoma = system: M14 melanoma
SN12C renal = system: SN12C renal
SNB-19 CNS = system: SNB-19 CNS
HT29 colon = system: HT29 colon
ACHN renal = system: ACHN renal
DU-145 prostate = system: DU-145 prostate
EKVX NSCLC = system: EKVX NSCLC
PC-3 prostate = system: PC-3 prostate
SW-620 colon = system: SW-620 colon
T-47D breast = system: T-47D breast
K-562 leukemia = system: K-562 leukemia
LOX IMVI melanoma = system: LOX IMVI melanoma
SF-268 CNS = system: SF-268 CNS
MDA-MB-231 breast = system: MDA-MB-231 breast
NCI-H322M lung = system: NCI-H322M lung
IGROV1 ovarian = system: IGROV1 ovarian
786-0 renal = system: 786-0 renal
CCRF-CEM leukemia = system: CCRF-CEM leukemia
NCI-H522 lung = system: NCI-H522 lung
NCI/ADR-RES ovarian = system: NCI/ADR-RES ovarian
OVCAR-8 ovarian = system: OVCAR-8 ovarian
SK-OV-3 ovarian = system: SK-OV-3 ovarian
SK-MEL-5 melanoma = system: SK-MEL-5 melanoma
A498 renal = system: A498 renal
UACC-257 melanoma = system: UACC-257 melanoma
MOLT-4 leukemia = system: MOLT-4 leukemia
HCC-2998 colon = system: HCC-2998 colon
NCI-H23 lung = system: NCI-H23 lung
NCI-H460 NSCLC = system: NCI-H460 NSCLC
OVCAR-5 ovarian = system: OVCAR-5 ovarian
MALME-3M melanoma = system: MALME-3M melanoma
RPMI-8226 leukemia = system: RPMI-8226 leukemia
NCI-H226 lung = system: NCI-H226 lung
MCF7 breast = system: MCF7 breast
RXF 393 renal = system: RXF 393 renal
SF-539 CNS = system: SF-539 CNS
CAKI-1 renal = system: CAKI-1 renal
MDA-MB-435 melanoma = system: MDA-MB-435 melanoma
SR leukemia = system: SR leukemia
SF-295 CNS = system: SF-295 CNS
HCT-15 colon = system: HCT-15 colon
SK-MEL-28 melanoma = system: SK-MEL-28 melanoma
A549 NSCLC = system: A549 NSCLC
UO-31 renal = system: UO-31 renal
COLO 205 colon = system: COLO 205 colon
OVCAR-3 ovarian = system: OVCAR-3 ovarian
UACC-62 melanoma = system: UACC-62 melanoma
BT-549 breast = system: BT-549 breast
SNB-75 CNS = system: SNB-75 CNS
HS 578T breast = system: HS 578T breast
HL-60(TB) leukemia = system: HL-60(TB) leukemia
KM12 colon = system: KM12 colon
HOP-92 NSCLC = system: HOP-92 NSCLC
HOP-62 NSCLC = system: HOP-62 NSCLC
MDA-MB-468 breast = system: MDA-MB-468 breast
TK-10 renal = system: TK-10 renal
OVCAR-4 ovarian = system: OVCAR-4 ovarian

N#Cc1cc(F)cc(Oc2ccc(S(=O)(=O)C(F)F)c3c2CC(F)(F)[C@H]3O)c1
26 µM: TGI (MDA-MB-468 breast)
43.1 µM: TGI (LOX IMVI melanoma)
53.2 µM: TGI (OVCAR-4 ovarian)
48.5 µM: TGI (NCI-H23 lung)
33.9 µM: TGI (NCI-H460 NSCLC)
86.3 µM: TGI (A549 NSCLC)
52 µM: TGI (NCI/ADR-RES ovarian) | TGI (HOP-92 NSCLC)
44 µM: TGI (A498 renal)
47.2 µM: TGI (BT-549 breast)
55.2 µM: TGI (MCF7 breast)
67.4 µM: TGI (T-47D breast)
69.8 µM: TGI (HS 578T breast)
25.8 µM: TGI (CCRF-CEM leukemia)
68.5 µM: TGI (OVCAR-3 ovarian)
28.9 µM: TGI (RPMI-8226 leukemia)
48.7 µM: TGI (UACC-257 melanoma)
> 100 µM: TGI (M14 melanoma) | TGI (SN12C renal) | TGI (SNB-19 CNS) | TGI (HT29 colon) | TGI (ACHN renal) | TGI (PC-3 prostate) | TGI (SW-620 colon) | TGI (K-562 leukemia) | TGI (SF-268 CNS) | TGI (MDA-MB-231 breast) | TGI (NCI-H322M lung) | TGI (IGROV1 ovarian) | TGI (786-0 renal) | TGI (OVCAR-8 ovarian) | TGI (SK-OV-3 ovarian) | TGI (HCC-2998 colon) | TGI (OVCAR-5 ovarian) | TGI (SF-539 CNS) | TGI (CAKI-1 renal) | TGI (MDA-MB-435 melanoma) | TGI (SF-295 CNS) | TGI (HCT-15 colon) | TGI (SK-MEL-28 melanoma) | TGI (UO-31 renal) | TGI (COLO 205 colon) | TGI (UACC-62 melanoma) | TGI (SNB-75 CNS) | TGI (KM12 colon) | TGI (HOP-62 NSCLC) | TGI (TK-10 renal)
61.2 µM: TGI (NCI-H522 lung)
30.5 µM: TGI (SR leukemia)
90.6 µM: TGI (DU-145 prostate)
27.1 µM: TGI (MOLT-4 leukemia)
97.3 µM: TGI (EKVX NSCLC)
33 µM: TGI (HL-60(TB) leukemia)
93.6 µM: TGI (MALME-3M melanoma)
inactive: GI50 (M14 melanoma) 33.7 µM | GI50 (SN12C renal) 32.7 µM | GI50 (SNB-19 CNS) 48.5 µM | GI50 (HT29 colon) 43.9 µM | GI50 (ACHN renal) 33.2 µM | GI50 (DU-145 prostate) 26.2 µM | GI50 (EKVX NSCLC) 27.3 µM | GI50 (PC-3 prostate) 29.9 µM | GI50 (SW-620 colon) 63.5 µM | GI50 (T-47D breast) 14.9 µM | GI50 (K-562 leukemia) 18.3 µM | GI50 (LOX IMVI melanoma) 20 µM | GI50 (SF-268 CNS) 48.6 µM | GI50 (MDA-MB-231 breast) 25.4 µM | GI50 (NCI-H322M lung) 39.4 µM | GI50 (IGROV1 ovarian) 41.6 µM | GI50 ([…]-0 renal) 31.6 µM | GI50 (CCRF-CEM leukemia) 11.6 µM | GI50 (NCI-H522 lung) 19.8 µM | GI50 (NCI/ADR-RES ovarian) 16.1 µM | GI50 (OVCAR-8 ovarian) 28.5 µM | GI50 (SK-OV-3 ovarian) 26.2 µM | GI50 (SK-MEL-5 melanoma) 15.1 µM | GI50 (A498 renal) 19.8 µM | GI50 (UACC-257 melanoma) 19.2 µM | GI50 (MOLT-4 leukemia) 13.9 µM | GI50 (HCC-2998 colon) 41.4 µM | GI50 (NCI-H23 lung) 14.2 µM | GI50 (NCI-H460 NSCLC) 18.1 µM | GI50 (OVCAR-5 ovarian) 56.4 µM | GI50 (MALME-3M melanoma) 28.8 µM | GI50 (RPMI-8226 leukemia) 11.8 µM | GI50 (NCI-H226 lung) 22.7 µM | GI50 (MCF7 breast) 19.6 µM | GI50 (RXF 393 renal) 21.3 µM | GI50 (SF-539 CNS) 33.6 µM | GI50 (CAKI-1 renal) 38.8 µM | GI50 (MDA-MB-435 melanoma) 48.4 µM | GI50 (SR leukemia) 15.7 µM | GI50 (SF-295 CNS) 30.2 µM | GI50 (HCT-15 colon) 27.8 µM | GI50 (SK-MEL-28 melanoma) 53.3 µM | GI50 (A549 NSCLC) 26.9 µM | GI50 (UO-31 renal) 36.4 µM | GI50 (COLO 205 colon) 38.7 µM | GI50 (OVCAR-3 ovarian) 25.1 µM | GI50 (UACC-62 melanoma) 34.9 µM | GI50 (BT-549 breast) 21.1 µM | GI50 (SNB-75 CNS) 34.4 µM | GI50 (HS 578T breast) 20 µM | GI50 (HL-60(TB) leukemia) 18.4 µM | GI50 (KM12 colon) 34.5 µM | GI50 (HOP-92 NSCLC) 16.3 µM | GI50 (HOP-62 NSCLC) 30 µM | GI50 (MDA-MB-468 breast) 8.94 µM | GI50 (TK-10 renal) 38.4 µM | GI50 (OVCAR-4 ovarian) 14.8 µM
29.4 µM: TGI (SK-MEL-5 melanoma)
73.8 µM: TGI (RXF 393 renal)
71.8 µM: TGI (NCI-H226 lung)
